Key:
Assay type in all cases: cell-based
[1] = tested on: Aspergillus fumigatus (MY5668); test: broth microdilution assay (MIC)
Description: (§1) In the microbroth dilution assay, microorganisms were selected by streaking a yeast culture on Sabouraud dextrose agar (SDA) incubating for 24-48 hours at 35°-37° C., thereafter selected 3 to 5 characteristic colonies and transferring to a fresh plate and incubating under similar conditions. From the regrowth, 3 to 5 colonies were selected and suspended in 10 milliliters of YM broth (Difco) and incubated for 4 hours at 35°-37° C. shaking at 225 rpm. The 4 hour broth cultures were adjusted optically to 86% transmission resulting in a concentration of 1-5×10^6 cfu/ml which was further diluted 1:100 in YNBD (yeast nitrogen base with 1 % dextrose) to obtain a concentration of 1-5×10^4 cfu/ml for use as inocula. […]
(§2) The plates containing the diluted compounds were then inoculated with 75 μl/well of the appropriate microorganism and incubated for 48 hours at 35°-37° C. with MIC (minimum inhibitory concentration) determinations carried out after 24 hours of incubation (except Cryptococcus strains which are read at 48 hours). […]
(§3) After recording MICs at 24 hours, the microtiter plates were shaken gently to resuspend the cells. […] For Cryptococcus neoformans, SDA plates were inoculated at 48 hours after recording MICs and incubated 48 hours before reading the MFC. […]

[2] = tested on: Aspergillus fumigatus (MY4839); test: broth microdilution assay (MIC)
Description: as §1, §2, §3

[3] = tested on: Aspergillus flavus, Fusarium oxysporum, Ustilago zeae and the like; test: agar plate inhibition zone test, filamentous fungi; conditions: agar plates, 28° C. or 37° C., 24 hours, inhibition zones
[4] = tested on: Candida pseudotropicalis (MY2099); test: broth microdilution assay (MIC/MFC)
Description: (§4) In the microbroth dilution assay, microorganisms were selected by streaking a yeast culture on Sabouraud dextrose agar (SDA) incubating for 24-48 hours at 35°-37° C., thereafter selected 3 to 5 characteristic colonies and transferring to a fresh plate and incubating under similar conditions. From the regrowth, 3 to 5 colonies were selected and suspended in 10 milliliters of YM broth (Difco) and incubated for 4 hours at 35°-37° C. shaking at 225 rpm. The 4 hour broth cultures were adjusted optically to 86% transmission resulting in a concentration of 1-5×10^6 cfu/ml which was further diluted 1:100 in YNBD (yeast nitrogen base with 1 % dextrose) to obtain a concentration of 1-5×10^4 cfu/ml for use as inocula.
(§5) The test compounds, Compounds I and II, were dissolved at 512 μg/ml in 10% DMSO and diluted 2× into the first well to achieve a concentration of 256 μg/ml at 5% DMSO in the first well. Compounds are subsequently serially diluted 2× and cell suspension is added to each well resulting in an additional 2× dilution of compound. 75 μl of said solution is delivered to each well in column 1 of a 96-well, U-bottomed microtiter plate. The compounds in column 1 were then serially diluted two-fold to yield concentrations from 128 μg/ml to 0.06 μg/ml.
(§6) The plates containing the diluted compounds were then inoculated with 75 μl/well of the appropriate microorganism and incubated for 48 hours at 35°-37° C. with MIC (minimum inhibitory concentration) determinations carried out after 24 hours of incubation (except Cryptococcus strains which are read at 48 hours). Growth and sterility controls for each organism and sterility checks for the compounds also were carried out.
(§7) After recording MICs at 24 hours, the microtiter plates were shaken gently to resuspend the cells. A 1.5 μl sample was transferred from each well of the 96-well microtiter plate to a single reservoir inoculum plate containing SDA. The inoculated SDA and corresponding microtiter plates were incubated for 24 hours at 35°-37° C. For Cryptococcus neoformans, SDA plates were inoculated at 48 hours after recording MICs and incubated 48 hours before reading the MFC. MFC is the lowest concentration of compound at which either no growth or growth of ≤4 colonies occur.

[5] = tested on: Candida tropicalis (MY1012); test: broth microdilution assay (MIC/MFC)
Description: as §4, §5, §6, §7

[6] = tested on: Cryptococcus neoformans (MY2062); test: broth microdilution assay (MIC/MFC)
Description: as §4, §5, §6, §7

[7] = tested on: Candida parapsilosis (MY1010); test: broth microdilution assay (MIC/MFC); conditions: 24 h, 35-37° C.
Description: as §4, §5, §6, §7

[8] = tested on: Candida albicans (CLY539); test: broth microdilution assay (MIC/MFC)
Description: as §4, §5, §6, §7

[9] = tested on: Candida glabrata (MY1381); test: broth microdilution assay (MIC/MFC)
Description: as §4, §5, §6, §7

[10] = tested on: Candida guillermondii (MY1019); test: broth microdilution assay (MIC/MFC)
Description: as §4, §5, §6, §7

[11] = tested on: Candida tropicalis (MY1124); test: broth microdilution assay (MIC/MFC)
Description: as §4, §5, §6, §7

[12] = tested on: Saccharomyces cerevisiae (MY2140); test: broth microdilution assay (MIC/MFC)
Description: as §4, §5, §6, §7

Candida albicans (CA2) = test: broth microdilution assay (MIC/MFC)
Description: as §4, §5, §6, §7

[13] = tested on: Candida albicans (MY1055); test: broth microdilution assay (MIC/MFC)
Description: as §4, §5, §6, §7

[14] = tested on: Saccharomyces cerevisiae (MY2141); test: broth microdilution assay (MIC/MFC)
Description: as §4, §5, §6, §7

[15] = tested on: Cryptococcus neoformans (MY2061); test: broth microdilution assay (MIC/MFC)
Description: as §4, §5, §6, §7

panel of fungi = test: broth microdilution assay against a panel of fungi, comparison with amphotericin B; conditions: MIC and MFC against a panel of fungi
Description: as §1, §2, §3

[16] = SDA incubated 48 h, no growth or ≤4 colonies

CC(C)C1CCC2C1(C)CCC1(C)C3=CCC4C(C)(C(=O)O)C(O)C(O)C(O)C4(C(=O)O)C3CCC21C (centres unmarked) [Compound II]
Minimum Inhibitory Concentration (MIC) [1]: > 128 µg/mL | Minimum Inhibitory Concentration (MIC) [2]: 8 µg/mL | inhibition of growth of filamentous fungi [3]: effectively inhibit growth of the fungal organisms | Minimum Inhibitory Concentration (MIC) ([4]; 24 h, 35-37° C.): 4 µg/mL | Minimum Fungicidal Concentration (MFC) ([4]; no growth or ≤4 colonies): 4 µg/mL | Minimum Inhibitory Concentration (MIC) ([5]; 24 h, 35-37° C.): 4 µg/mL | Minimum Fungicidal Concentration (MFC) ([5]; no growth or ≤4 colonies): 8 µg/mL | Minimum Fungicidal Concentration (MFC) [6, 16]: 4 µg/mL | Minimum Inhibitory Concentration (MIC) ([6]; read at 48 h, 35-37° C.): 4 µg/mL | Minimum Inhibitory Concentration (MIC) [7]: 32 µg/mL | Minimum Inhibitory Concentration (MIC) ([8]; 24 h, 35-37° C.): 8 µg/mL | Minimum Fungicidal Concentration (MFC) ([8]; no growth or ≤4 colonies): 8 µg/mL | Minimum Inhibitory Concentration (MIC) ([9]; 24 h, 35-37° C.): 8 µg/mL | Minimum Fungicidal Concentration (MFC) ([9]; no growth or ≤4 colonies): 8 µg/mL | Minimum Inhibitory Concentration (MIC) ([10]; 24 h, 35-37° C.): > 128 µg/mL | Minimum Fungicidal Concentration (MFC) ([10]; no growth or ≤4 colonies): > 128 µg/mL | Minimum Inhibitory Concentration (MIC) ([11]; 24 h, 35-37° C.): 8 µg/mL | Minimum Fungicidal Concentration (MFC) ([11]; no growth or ≤4 colonies): 8 µg/mL | Minimum Inhibitory Concentration (MIC) ([12]; 24 h, 35-37° C.): 4 µg/mL | Minimum Fungicidal Concentration (MFC) ([12]; no growth or ≤4 colonies): 4 µg/mL | Minimum Inhibitory Concentration (MIC) (Candida albicans (CA2); 24 h, 35-37° C.): 8 µg/mL | Minimum Fungicidal Concentration (MFC) (Candida albicans (CA2); no growth or ≤4 colonies): 8 µg/mL | Minimum Inhibitory Concentration (MIC) ([13]; 24 h, 35-37° C.): 8 µg/mL | Minimum Fungicidal Concentration (MFC) ([13]; no growth or ≤4 colonies): 8 µg/mL | Minimum Inhibitory Concentration (MIC) ([14]; 24 h, 35-37° C.): 4 µg/mL | Minimum Fungicidal Concentration (MFC) ([14]; no growth or ≤4 colonies): 4 µg/mL | Minimum Fungicidal Concentration (MFC) [15, 16]: 4 µg/mL | Minimum Inhibitory Concentration (MIC) ([15]; read at 48 h, 35-37° C.): 4 µg/mL | effective concentrations compared with amphotericin B (panel of fungi): effective at concentrations comparable to an established antifungal agent, amphotericin B

Source: patent publication US5770587A, “Antifungal agents” (Merck & Co., Inc., priority 1996, dated 1998)
